These results are taken from patent US7361658B2, “2-acylaminothiazole derivative or salt thereof” (Astellas Pharma Inc., priority 2003, dated 2008).

Read-outs that look alike come from different tables or passages of the source.

The target in test [1] is T1, human c-mpl-Ba/F3 cells (Homo sapiens, UniProt P40238).
T1 construct: expressed in transfected cells; host or cells: Ba/F3 (murine pro-B cells) expressing human c-mpl
T1 sequence (P40238 26-635): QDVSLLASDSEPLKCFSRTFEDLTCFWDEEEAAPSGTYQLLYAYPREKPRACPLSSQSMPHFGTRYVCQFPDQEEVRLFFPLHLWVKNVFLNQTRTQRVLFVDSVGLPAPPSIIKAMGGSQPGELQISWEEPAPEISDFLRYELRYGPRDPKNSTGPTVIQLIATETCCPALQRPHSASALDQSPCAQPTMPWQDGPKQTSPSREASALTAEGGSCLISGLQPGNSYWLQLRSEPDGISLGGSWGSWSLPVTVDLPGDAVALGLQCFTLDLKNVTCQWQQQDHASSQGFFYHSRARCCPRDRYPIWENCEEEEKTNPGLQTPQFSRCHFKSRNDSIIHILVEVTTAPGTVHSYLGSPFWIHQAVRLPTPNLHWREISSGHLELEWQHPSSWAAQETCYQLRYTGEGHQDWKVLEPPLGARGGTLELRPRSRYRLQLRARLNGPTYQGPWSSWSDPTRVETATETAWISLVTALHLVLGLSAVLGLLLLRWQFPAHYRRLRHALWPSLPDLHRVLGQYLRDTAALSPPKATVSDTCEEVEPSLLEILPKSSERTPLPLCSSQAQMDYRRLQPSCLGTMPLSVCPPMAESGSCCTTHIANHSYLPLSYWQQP
As to the kind of experiment: Mouse oral administration test: human c-mpl-Ba/F3 cell growth activity of a plasma after oral administration. The conditions noted are these: male ICR mouse, plasma 2 h after administration, maximum activity of each test compound = 100%. In kind it is in vivo. As to the method: (iii) Mouse Oral Administration Test
3 mg/kg or 10 mg/kg (100 mg/kg in Comparative Compounds 1 to 3) of a test compound dissolved or suspended in a 0.5% methylcellulose aqueous solution was orally administered to a male ICR mouse. After 2 hours from administration, a blood was sampled from the subabdominal large vein using 1/10-volume 3.8% sodium citrate as an anticoagulant. Centrifugation was performed at 12,000 rpm for 3 minutes. The resulting plasma was heated at 56° C. for 30 minutes, and added to a system of the human c-mpl-Ba/F3 cell growth test described in (i) such that the final concentration of the plasma reached 0.3%, 1% or 3% (10% in Comparative Compounds 1 to 3) to measure a cell growth activity. The cell growth activity (%) of each plasma was measured when the maximum cell growth activity of each test compound was defined as 100%.

The target of test [2] is T1, human c-mpl-Ba/F3 cells. As to the kind of experiment: Human c-mpl-Ba/F3 cell growth test. It counts as cell-based. Particulars: for Emax / Efficacy: maximum cell growth activity; for Emax: read-out: Efficacy. How it is done: (i) Human c-mpl-Ba/F3 Cell Growth Test
In a 96-well microplate, 2×10^5 cells/ml of human c-mpl-Ba/F3 cells were cultured at 37° C. in 10% fetal bovine serum-containing RPMI1640 medium (100 μl/well) containing each test compound at each concentration. After 24 hours from the start-up of culture, 10 μl/well of WST-1/1-methoxy PMS (cell counting kit, Dojin) was added. Immediately after addition and 2 hours after addition, absorbance of A450/A650 was measured with a microplate reader (Model 3350: Bio-Rad), and an increase in absorbance for 2 hours was defined as a growth activity of each test compound.
pot: Concentration of each test compound at which to accelerate cell growth by 30% of a maximum cell growth activity of compound A (compound A and rhTPO in rhTPO)
Efficacy: Maximum cell growth activity of each test compound when a maximum cell growth activity of compound A (compound A and rhTPO in rhTPO) is defined as 100%.
Compound A refers to a compound in Example 9 of the foregoing Patent Document 10.

[3] abbreviates: 100 mg/kg p.o., dilution rate 10%.
Where [4] appears, read: concentration at which cell growth is accelerated by 30% of the maximum cell growth activity of compound A, 24 h culture.
Setting [5] is: maximum of compound A defined as 100%.
[6] abbreviates: concentration at which cell growth is accelerated by 30% of the maximum cell growth activity of rhTPO (applies to compound A and rhTPO).
[7] abbreviates: maximum of rhTPO defined as 100% (applies to compound A and rhTPO).
[8] abbreviates: 3 mg/kg p.o., dilution rate 0.3%.

For the compound `O=C1NC(=S)S/C1=C\c1ccc(C(=O)Nc2nc(-c3ccc(Cl)c(Cl)c3)cs2)cc1` [Comparative Compound 1, reference compound], the Cell growth activity at human c-mpl-Ba/F3 cells [1] (setting [3]) is below 10%. Moreover, the Pot at human c-mpl-Ba/F3 cells [2] (setting [4]) is given as 4.4 nM. Besides, at human c-mpl-Ba/F3 cells [2] (setting [5]), the Emax was 101%.
The compound `O=C(O)/C(Cl)=C/c1ccc(C(=O)Nc2nc(-c3ccc(Cl)c(Cl)c3)cs2)cc1` [Comparative Compound 2, reference compound] registered a Cell growth activity at human c-mpl-Ba/F3 cells [1] (setting [3]) below 10%. Further, the Pot on human c-mpl-Ba/F3 cells [2] (setting [4]) stood at 2.1 nM. Moreover, at human c-mpl-Ba/F3 cells [2] (setting [5]), the Emax is 96%.
For `Cc1sc(NC(=O)c2ccc(/C=C(\Cl)C(=O)O)cc2)nc1-c1cccc(C(F)(F)F)c1` [Comparative Compound 3, reference compound], in that order: below 10%, 6.9 nM and 96%.
`COc1cc(C(=O)Nc2nc(-c3ccc(F)cc3)c(N3CCN(C4CCCCC4)CC3)s2)ccn1` [Comparative Compound 4, reference compound] gave a Pot at human c-mpl-Ba/F3 cells [2] (setting [4]) of 251 nM. In addition, at human c-mpl-Ba/F3 cells [2] (setting [5]), the Emax worked out at 95%.
On human c-mpl-Ba/F3 cells [2] (setting [6]), `O=C(Nc1nc(-c2cc(Cl)cs2)c(N2CCN(C3CCCCC3)CC2)s1)c1ccc(OCCO)c(Cl)c1` [Compound A, reference compound] displayed a Pot of 10 nM. The Emax at human c-mpl-Ba/F3 cells [2] (setting [7]) was found to be 87%.
In the case of `CN(C)Cc1sc(NC(=O)c2cnc(N3CCC(C(=O)O)CC3)c(Cl)c2)nc1-c1cc(Cl)cs1` [Example 65, 1-(3-chloro-5-{[4-(4-chlorothiophen-2-yl)-5-(dimethylaminomethyl)thiazol-2-yl]carbamoyl}-2-pyridyl)piperidine-4-carboxylic acid], the Cell growth activity entry at human c-mpl-Ba/F3 cells [1] (3 mg/kg p.o., dilution rate 3%) was “≧80%”. In addition, at human c-mpl-Ba/F3 cells [2] (setting [4]), the Pot was 4.3 nM. Also, the Emax at human c-mpl-Ba/F3 cells [2] (setting [5]) was 114%.
Consider `O=C(Nc1nc(-c2cc(Cl)cs2)c(CN2CCCCCC2)s1)c1cnc(N2CCC(C(=O)O)CC2)c(Cl)c1` [Example 84, 1-(5-{[5-(azepan-1-ylmethyl)-4-(4-chlorothiophen-2-yl)thiazol-2-yl]carbamoyl}-3-chloro-2-pyridyl)piperidine-4-carboxylic acid], for which the Cell growth activity result at human c-mpl-Ba/F3 cells [1] (3 mg/kg p.o., dilution rate 1%) is reported as “≧80%”. This compound showed a Pot on human c-mpl-Ba/F3 cells [2] (setting [4]) of 4.2 nM. Besides, the Emax at human c-mpl-Ba/F3 cells [2] (setting [5]) is 103%.
Take `O=C(Nc1nc(-c2cc(Cl)cs2)c(CN2CCCCCCC2)s1)c1cnc(N2CCC(C(=O)O)CC2)c(Cl)c1` [Example 85]: the Cell growth activity entry on human c-mpl-Ba/F3 cells [1] (3 mg/kg p.o., dilution rate 1%) is given as “≧80%”. On human c-mpl-Ba/F3 cells [2] (setting [4]), this compound returned a Pot of 3.3 nM. In addition, the Efficacy at human c-mpl-Ba/F3 cells [2] (setting [5]) worked out at 107%.
Consider `CN(Cc1sc(NC(=O)c2cnc(N3CCC(C(=O)O)CC3)c(Cl)c2)nc1-c1cc(Cl)cs1)C1CCCCC1` [Example 90, 1-{3-chloro-5-[(4-(4-chlorothiophen-2-yl)-5-{[cyclohexyl(methyl)amino]methyl}thiazol-2-yl)carbamoyl]-2-pyridyl}piperidine-4-carboxylic acid], for which the Cell growth activity result on human c-mpl-Ba/F3 cells [1] (setting [8]) is given as “≧80%”. Moreover, the Pot on human c-mpl-Ba/F3 cells [2] (setting [4]) amounted to 2.0 nM. Besides, the Emax at human c-mpl-Ba/F3 cells [2] (setting [5]) amounted to 94%.
The compound `CN(Cc1sc(NC(=O)c2cnc(N3CCC(C(=O)O)CC3)c(Cl)c2)nc1-c1cc(Cl)cs1)C1CC1` [Example 101, 1-{3-chloro-5-[(4-(4-chlorothiophen-2-yl)-5-{[cyclopropyl(methyl)amino]methyl}thiazol-2-yl)carbamoyl]-2-pyridyl}piperidine-4-carboxylic acid] showed a Cell growth activity on human c-mpl-Ba/F3 cells [1] (3 mg/kg p.o., dilution rate 1%) of 76%. The compound further displayed a Pot at human c-mpl-Ba/F3 cells [2] (setting [4]) of 3.1 nM. Besides, the Emax at human c-mpl-Ba/F3 cells [2] (setting [5]) amounted to 108%.
In the case of `C[C@@H]1CCCN1Cc1sc(NC(=O)c2cnc(N3CCC(C(=O)O)CC3)c(Cl)c2)nc1-c1cc(Cl)cs1` [Example 107, 1-{3-chloro-5-[(4-(4-chlorothiophen-2-yl)-5-{[(2R)-2-methylpyrrolidin-1-yl]methyl}thiazol-2-yl)carbamoyl]-2-pyridyl}piperidine-4-carboxylic acid], the Pot at human c-mpl-Ba/F3 cells [2] (setting [4]) came out at 1.5 nM. For the same compound, the Emax on human c-mpl-Ba/F3 cells [2] (setting [5]) worked out at 112%.
`C[C@H]1CCN(Cc2sc(NC(=O)c3cnc(N4CCC(C(=O)O)CC4)c(Cl)c3)nc2-c2cc(Cl)cs2)C1` [Example 109, 1-{3-chloro-5-[(4-(4-chlorothiophen-2-yl)-5-{[(3S)-3-methylpyrrolidin-1-yl]methyl}thiazol-2-yl)carbamoyl]-2-pyridyl}piperidine-4-carboxylic acid]: the Cell growth activity on human c-mpl-Ba/F3 cells [1] (3 mg/kg p.o., dilution rate 1%) is 59%. At human c-mpl-Ba/F3 cells [2] (setting [4]), the Pot is 3.9 nM. At human c-mpl-Ba/F3 cells [2] (setting [5]), the Emax stood at 95%.
The compound `CO[C@@H](C)CN(C)Cc1sc(NC(=O)c2cnc(N3CCC(C(=O)O)CC3)c(Cl)c2)nc1-c1cc(Cl)cs1` [Example 111, 1-{3-chloro-5-[(4-(4-chlorothiophen-2-yl)-5-{[[(2S)-2-methoxypropyl](methyl)amino]methyl}thiazol-2-yl)carbamoyl]-2-pyridyl}piperidine-4-carboxylic acid] gave a Pot on human c-mpl-Ba/F3 cells [2] (setting [4]) of 6.0 nM. Besides, the Emax at human c-mpl-Ba/F3 cells [2] (setting [5]) was determined as 87%.
With `CCCCN(C)Cc1sc(NC(=O)c2cnc(N3CCC(CO)CC3)c(Cl)c2)nc1-c1cc(Cl)cs1` [Example 150, N-[5-{[butyl(methyl)amino]methyl}-4-(4-chlorothiophen-2-yl)thiazol-2-yl]-5-chloro-6-[4-(hydroxymethyl)piperidino]nicotinamide], the Cell growth activity on human c-mpl-Ba/F3 cells [1] (setting [8]) was 28%. The same compound had a Pot at human c-mpl-Ba/F3 cells [2] (setting [4]) of 3.6 nM. Besides, the Emax at human c-mpl-Ba/F3 cells [2] (setting [5]) was determined as 102%.
For the compound `C[C@@H]1CCCN1Cc1sc(NC(=O)c2cnc(N3CC(CC(=O)O)C3)c(Cl)c2)nc1-c1cc(Cl)cs1` [Example 222, (1-{3-chloro-5-[(4-(4-chlorothiophen-2-yl)-5-{[(2R)-2-methylpyrrolidin-1-yl]methyl}thiazol-2-yl)carbamoyl]-2-pyridyl}azetidin-3-yl)acetic acid], the Pot at human c-mpl-Ba/F3 cells [2] (setting [4]) is listed as 4.4 nM. On human c-mpl-Ba/F3 cells [2] (setting [5]), the Emax is 102%.
For `C[C@@H]1CCCN1Cc1sc(NC(=O)c2cnc(N(C)CCCC(=O)O)c(Cl)c2)nc1-c1cc(Cl)cs1` [Example 226, 4-[{3-chloro-5-[(4-(4-chlorothiophen-2-yl)-5-{[(2R)-2-methylpyrrolidin-1-yl]methyl}thiazol-2-yl)carbamoyl]-2-pyridyl}(methyl)amino]butyric acid] the same measures were 4.6 nM and 88%.
With `CC(C)N(C)Cc1sc(NC(=O)c2cnc(N(C)CCCC(=O)O)c(Cl)c2)nc1-c1cc(Cl)cs1` [Example 227, 4-[{3-chloro-5-[(4-(4-chlorothiophen-2-yl)-5-{[isopropyl(methyl)amino]methyl}thiazol-2-yl)carbamoyl]-2-pyridyl}(methyl)amino]butyric acid], the Pot at human c-mpl-Ba/F3 cells [2] (setting [4]) is 3.2 nM. Further, the Emax at human c-mpl-Ba/F3 cells [2] (setting [5]) came to 88%.
As for `C[C@H]1CCCN1Cc1sc(NC(=O)c2cnc(N3CCC(C(=O)O)CC3)c(F)c2)nc1-c1cc(Cl)cs1` [Example 314, 1-{5-[(4-(4-chlorothiophen-2-yl)-5-{[(2S)-2-methylpyrrolidin-1-yl]methyl}thiazol-2-yl)carbamoyl]-3-fluoro-2-pyridyl}piperidine-4-carboxylic acid], the Cell growth activity on human c-mpl-Ba/F3 cells [1] (3 mg/kg p.o., dilution rate 3%) was 52%.
Compound “rhTPO: thrombopoietin (TPO), a c-Mpl ligand; a protein” gave a Pot with human c-mpl-Ba/F3 cells [2] (setting [6]) of 0.012 nM. In the test with human c-mpl-Ba/F3 cells [2] (setting [7]), this compound gave an Efficacy of 100%.
